Source: ChEMBL document CHEMBL1129049, “Structure-activity analysis of anandamide analogs: relationship to a cannabinoid pharmacophore” (1996)

Assays:
Mus musculus [1] = species: Mus musculus; test: Effective dose required to increase tail-flick latency in mice; assay type: functional
Mus musculus [2] = species: Mus musculus; test: Effective dose required to inhibit spontaneous locomotor activity in mice; assay type: functional

| Compound | ED50 (Mus musculus [1]) | ED50 (Mus musculus [2]) |
| --- | --- | --- |
| CCCCC/C=C\C/C=C\C/C=C\C/C=C\CCCC(=O)NCCCCCO | 72.9 µmol/kg | 49.5 µmol/kg |
| CCCCC/C=C\C/C=C\C/C=C\C/C=C\CCCC(=O)NCCCO | 61.4 µmol/kg | 43.7 µmol/kg |
| CCCCC/C=C\C/C=C\C/C=C\C/C=C\CCCC(=O)NCCOc1ccccc1 | 74.1 µmol/kg | 23 µmol/kg |
| CCCCC/C=C\C/C=C\C/C=C\C/C=C\CCC(C)(C)C(=O)NCCO | 49.6 µmol/kg | 30.5 µmol/kg |
| CCCCC/C=C\C/C=C\C/C=C\C/C=C\CCCC(=O)N1CCOCC1 | 25.4 µmol/kg | 20.7 µmol/kg |
| CCCCC/C=C\C/C=C\C/C=C\C/C=C\CCCC(=O)NCCF | 190 µmol/kg | 57.2 µmol/kg |
| CCCCC/C=C\C/C=C\C/C=C\C/C=C\CCCC(=O)NCCOC |  | 186 µmol/kg |
| CCCCC/C=C\C/C=C\C/C=C\C/C=C\CCCC(=O)NCCO [ANANDAMIDE] | 17.4 µmol/kg | 50.3 µmol/kg |
